Measurements taken from patent US20070128217A1 (priority 2003, published 2007).

Experiments:
[1] = system: control sera (pooled serum of ten healthy LUMC hospital workers; commercial negative donor pooled serum from the Dutch bloodbank); format: binding, human
[2] = system: rabbit serum obtained by immunizing a rabbit with the SARS-CoV strain Frankfurt 1; format: binding; parameters: Binding of a rabbit serum to linear peptides / Binding of a rabbit serum to looped peptides / Rabbit serum linear peptides / Rabbit serum looped peptides / Binding of a rabbit serum to linear peptides of protein N of SARS-CoV Urbani (Rabbit serum linear peptides) / Binding of a rabbit serum to looped/cyclic peptides of protein N of SARS-CoV Urbani (Rabbit serum looped peptides): unit not given here
[3] = system: antibodies in sera from SARS patients (sera 1a, 1b, 2, 6, 37, 62, London, SARS-yellow, SARS-green); format: binding, human

Sequence | Binding of Control Serum Blood-Bank to Looped peptides [1] | Binding of Control serum Blood-bank to linear peptides [1] | Binding of Control serum LUMC to linear peptides [1] | Binding of Control serum LUMC to looped peptides [1] | Binding of a rabbit serum to linear peptides [2] | Binding of a rabbit serum to looped peptides [2] | Binding of serum 1a to linear peptides of protein E of SARS-CoV Urbani [3] | Binding of serum 1a to looped/cyclic peptides of protein E of SARS-CoV Urbani [3] | Binding of serum 1b to linear peptides of protein E of SARS-CoV Urbani [3] | Binding of serum 1b to looped/cyclic peptides of protein E of SARS-CoV Urbani [3] | Binding of serum 2 to linear peptides of protein E of SARS-CoV Urbani [3] | Binding of serum 2 to looped/cyclic peptides of protein E of SARS-CoV Urbani [3] | Binding of serum 6 to linear peptides of protein E of SARS-CoV Urbani [3] | Binding of serum 6 to looped/cyclic peptides of protein E of SARS-CoV Urbani [3] | Binding of serum 37 to linear peptides of protein E of SARS-CoV Urbani [3] | Binding of serum 37 to looped/cyclic peptides of protein E of SARS-CoV Urbani [3] | Binding of serum 62 to linear peptides of protein E of SARS-CoV Urbani [3] | Binding of serum 62 to looped/cyclic peptides of protein E of SARS-CoV Urbani [3] | Binding of serum London to linear peptides of protein E of SARS-CoV Urbani [3] | Binding of serum London to looped/cyclic peptides of protein E of SARS-CoV Urbani [3] | also measured
LLFLAFVVFLLVTLA | 0.5 | 0.6 | 0.4 | 0.7 | 0.6 | 0.4 | 0.8 | 0.7 | 0.6 | 0.4 | 0.5 | 0.6 | 0.7 | 0.4 | 0.7 | 0.7 | 0.7 | 0.7 | 0.5 | 0.4 | Binding of serum SARS-green to linear peptides of protein E of SARS-CoV Urbani [3]: 0.4; Binding of serum SARS-green to looped/cyclic peptides of protein E of SARS-CoV Urbani [3]: 0.4; Binding of serum SARS-yellow to linear peptides of protein E of SARS-CoV Urbani [3]: 0.2; Binding of serum SARS-yellow to looped/cyclic peptides of protein E of SARS-CoV Urbani [3]: 0.7
MYSFVSEETGTLIVN | 0.6 | 0.8 | 0.7 | 0.8 | 0.5 | 0.2 | 0.8 | 0.7 | 0.8 | 0.5 | 0.6 | 0.6 | 0.6 | 0.5 | 0.8 | 0.7 | 0.8 | 0.8 | 0.6 | 0.4 | Binding of serum SARS-green to linear peptides of protein E of SARS-CoV Urbani [3]: 0.6; Binding of serum SARS-green to looped/cyclic peptides of protein E of SARS-CoV Urbani [3]: 0.4; Binding of serum SARS-yellow to linear peptides of protein E of SARS-CoV Urbani [3]: 0.1; Binding of serum SARS-yellow to looped/cyclic peptides of protein E of SARS-CoV Urbani [3]: 0.8
NSVLLFLAFVVFLLV | 0.6 | 0.7 | 0.7 | 0.8 | 0.6 | 0.6 | 0.8 | 0.6 | 0.6 | 0.5 | 0.6 | 0.6 | 0.9 | 0.4 | 0.7 | 0.7 | 0.7 | 0.7 | 0.6 | 0.3 | Binding of serum SARS-green to linear peptides of protein E of SARS-CoV Urbani [3]: 0.3; Binding of serum SARS-green to looped/cyclic peptides of protein E of SARS-CoV Urbani [3]: 0.4; Binding of serum SARS-yellow to linear peptides of protein E of SARS-CoV Urbani [3]: 0.2; Binding of serum SARS-yellow to looped/cyclic peptides of protein E of SARS-CoV Urbani [3]: 0.7
RLCAYCCNIVNVSLV | 0.7 | 0.8 | 0.6 | 0.8 | 0.4 | 0.2 | 0.6 | 0.7 | 0.5 | 0.7 | 0.6 | 0.7 | 0.4 | 0.7 | 0.5 | 0.6 | 0.4 | 0.8 | 0.5 | 0.5 | Binding of serum SARS-green to linear peptides of protein E of SARS-CoV Urbani [3]: 0.5; Binding of serum SARS-green to looped/cyclic peptides of protein E of SARS-CoV Urbani [3]: 0.8; Binding of serum SARS-yellow to linear peptides of protein E of SARS-CoV Urbani [3]: 0.2; Binding of serum SARS-yellow to looped/cyclic peptides of protein E of SARS-CoV Urbani [3]: 0.6
SVLLFLAFVVFLLVT | 0.6 | 0.7 | 0.5 | 0.7 | 0.6 | 0.2 | 0.8 | 0.6 | 0.7 | 0.5 | 0.5 | 0.5 | 0.9 | 0.4 | 0.8 | 0.6 | 0.7 | 0.6 | 0.5 | 0.4 | Binding of serum SARS-green to linear peptides of protein E of SARS-CoV Urbani [3]: 0.5; Binding of serum SARS-green to looped/cyclic peptides of protein E of SARS-CoV Urbani [3]: 0.6; Binding of serum SARS-yellow to linear peptides of protein E of SARS-CoV Urbani [3]: 0.3; Binding of serum SARS-yellow to looped/cyclic peptides of protein E of SARS-CoV Urbani [3]: 0.6
